The source made the active and inactive calls. The rule behind the calls is not given here.
What was measured:
MDA-MB-468 = assay: Antiproliferative activity against BRCA-proficient human MDA-MB-468 cells assessed as inhibition of cell growth measured after 7 days by MTT assay; assay type: functional, cell-based; details: MDA-MB-468, 168 h
HCT-116 = assay: Antiproliferative activity against BRCA2-mutated human HCT-116 cells assessed as inhibition of cell growth measured after 7 days by MTT assay; assay type: functional, cell-based; details: HCT-116, 168 h
THP-1 = assay: Antiproliferative activity against human THP-1 cells expressing BRD4 assessed as inhibition of cell growth measured after 3 days by MTT assay; assay type: functional, cell-based; details: THP-1, 72 h
SW1990 [1] = assay: Antiproliferative activity against human SW1990 cells assessed as inhibition of cell growth after 3 days by MTT assay; assay type: functional, cell-based; details: SW1990, 72 h
SW1990 [2] = assay: Antiproliferative activity against human SW1990 cells assessed as inhibition of cell growth measured after 5 days by MTT assay; assay type: functional, cell-based; details: SW1990, 120 h
SW1990 [3] = assay: Effect on c-Myc gene expression in human SW1990 cells at 4 uM by Q-PCR analysis; assay type: functional, cell-based
SW1990 [4] = assay: Antiproliferative activity against human SW1990 cells assessed as inhibition of cell growth measured after 7 days by MTT assay; assay type: functional, cell-based; details: SW1990, 168 h
CAPAN-1 [5] = assay: Antiproliferative activity against human CAPAN-1 cells assessed as inhibition of cell growth measured after 3 days by MTT assay; assay type: functional, cell-based; details: CAPAN-1, 72 h
CAPAN-1 [6] = assay: Antiproliferative activity against human CAPAN-1 cells assessed as inhibition of cell growth measured after 5 days by MTT assay; assay type: functional, cell-based; details: CAPAN-1, 120 h
CAPAN-1 [7] = assay: Antiproliferative activity against human CAPAN-1 cells assessed as inhibition of cell growth measured after 7 days by MTT assay; assay type: functional, cell-based; details: CAPAN-1, 168 h
CFPAC-1 [8] = assay: Antiproliferative activity against human CFPAC-1 cells assessed as inhibition of cell growth measured after 3 days by MTT assay; assay type: functional, cell-based; details: CFPAC-1, 72 h
CFPAC-1 [9] = assay: Antiproliferative activity against human CFPAC-1 cells assessed as inhibition of cell growth measured after 4 days by MTT assay; assay type: functional, cell-based; details: CFPAC-1, 96 h
CFPAC-1 [10] = assay: Antiproliferative activity against human CFPAC-1 cells assessed as inhibition of cell growth measured after 7 days by MTT assay; assay type: functional, cell-based; details: CFPAC-1, 168 h
[11] = Toxicity in nude mouse xenografted with human SW1990 cells assessed as liver damage at 15 mg/kg, ip administered for 28 days by H and E staining based fluorescence microscopic analysis; assay type: organism-based; details: in vivo, 672 h, time 28 day
[12] = Toxicity in nude mouse xenografted with human SW1990 cells assessed as spleen damage at 15 mg/kg, ip administered for 28 days by H and E staining based fluorescence microscopic analysis; assay type: organism-based; details: in vivo, 672 h, time 28 day
SW1990 [13] = assay: Induction of DNA damage in human SW1990 cells assessed as increase in tail DNA at 4 uM incubated for 4 days by comet assay; assay type: functional, cell-based; details: time 4.0 day
SW1990 [14] = assay: Induction of DNA damage in human SW1990 cells assessed as increase in gammaH2AX expression at 4 uM incubated for 4 days by DAPI staining based laser confocal microscopic analysis; assay type: functional, cell-based; details: time 4.0 day
SW1990 [15] = assay: Effect on CDK1 gene expression in human SW1990 cells at 4 uM by Q-PCR analysis; assay type: functional, cell-based
SW1990 [16] = assay: Effect on E2F2 gene expression in human SW1990 cells at 1 uM in presence of Olaparib by Q-PCR analysis; assay type: functional, cell-based
SW1990 [17] = assay: Effect on Rad51 gene expression in human SW1990 cells at 1 uM in presence of Olaparib by Q-PCR analysis; assay type: functional, cell-based
SW1990 [18] = assay: Downregulation of Ki67 expression in human SW1990 cells at 15 mg/kg, ip measured after 28 days by immuno histochemical staining based fluorescence microscopic analysis; assay type: functional, organism-based; details: time 28.0 day
SW1990 [19] = assay: Inhibition of colony formation in human SW1990 cells at 1 uM after 14 days by crystal violet staining based microscopic analysis; assay type: functional, cell-based; details: time 14.0 day
[20] = molecular target: Bromodomain-containing protein 4 (Homo sapiens, UniProt O60885); assay: Inhibition of BRD4-BD1/2 (unknown origin)
CFPAC-1 [21] = assay: Antiproliferative activity against human CFPAC-1 cells assessed as inhibition of cell growth measured after 5 days by MTT assay; assay type: functional, cell-based; details: CFPAC-1, 120 h
SW1990 [22] = assay: Antitumor activity against human SW1990 cells xenografted in nude mouse assessed as reduction in tumor weight at 30 mg/kg, ip administered for 28 days and measured every 3 days by vernier caliper method; assay type: functional, organism-based; details: time 28.0 day
Mus musculus [23] = assay: Inhibition of BRD4 expression in nude mouse xenografted with human SW1900 cells at 30 mg/kg, ip administered for 28 days by DAPI staining based laser confocal microscopic analysis; assay type: functional, organism-based; details: time 28.0 day
Mus musculus [24] = assay: Inhibition of PARP1 expression in nude mouse xenografted with human […] cells at 30 mg/kg, ip administered for 28 days by Western blot analysis; assay type: functional, organism-based; details: time 28.0 day
Mus musculus [25] = assay: Inhibition of BRD4 expression in nude mouse xenografted with human SW1900 cells at 30 mg/kg, ip administered for 28 days by Western blot analysis; assay type: functional, organism-based; details: time 28.0 day
Mus musculus [26] = assay: Inhibition of E2F2 expression in nude mouse xenografted with human SW1990 cells at 30 mg/kg, ip measured after 4 days by Q-PCR analysis; assay type: functional, organism-based; details: time 4.0 day
Mus musculus [27] = assay: Inhibition of CDK1 expression in nude mouse xenografted with human SW1990 cells at 30 mg/kg, ip measured after 4 days by Q-PCR analysis; assay type: functional, organism-based; details: time 4.0 day
Mus musculus [28] = assay: Inhibition of homologous recombinant repair in nude mouse xenografted with human SW1990 cells assessed as reversal of olaparib-induced ALDH1A1 expression at 30 mg/kg, ip after 4 days by Western blot analysis; assay type: functional, organism-based; details: time 4.0 day
Mus musculus [29] = assay: Inhibition of homologous recombinant repair in nude mouse xenografted with human SW1990 cells assessed as reversal of olaparib-induced MDC1 expression at 30 mg/kg, ip measured after 4 days by Western blot analysis; assay type: functional, organism-based; details: time 4.0 day
SW1990 [30] = assay: Effect on CDK1 to 2 gene expression in human SW1990 cells at 1 to 2 uM by Q-PCR analysis; assay type: functional, cell-based; details: dose 1-2 µM
SW1990 [31] = assay: Effect on HEXIM1 gene expression in human SW1990 cells at 1 to 2 uM by Q-PCR analysis; assay type: functional, cell-based; details: dose 1-2 µM
SW1990 [32] = assay: Induction of apoptosis in human SW1990 cells assessed as necrotic cells at 6 uM measured after 4 days by Annexin V-FITC and propidium iodide staining based flow cytometry (reference value: 2.45%); assay type: functional; details: time 4 day
Mus musculus [33] = assay: Upregulation of CDK1 expression in nude mouse xenografted with human SW1990 cells at 45 mg/kg, ip measured after 4 days by Q-PCR analysis; assay type: functional, organism-based; details: time 4.0 day
SW1990 [34] = assay: Effect on CCNB1 gene expression in human SW1990 cells at 6 uM by Q-PCR analysis; assay type: functional, cell-based
SW1990 [35] = assay: Effect on TOPBP1 gene expression in human SW1990 cells at 6 uM by Q-PCR analysis; assay type: functional, cell-based
SW1990 [36] = assay: Upregulation of CDK1 expression in human SW1990 cells at 6 uM measured after 4 days by Western blot analysis; assay type: functional, cell-based; details: time 4.0 day
SW1990 [37] = assay: Induction of BRCA2 accumulation in nucleus of human SW1990 cells at 6 uM measured after 4 days by Western blot analysis; assay type: functional, cell-based; details: time 4.0 day

Compound	IC50 (MDA-MB-468)	IC50 (HCT-116)	IC50 (THP-1)	IC50 (SW1990 [1])	IC50 (SW1990 [2])	IC50 (SW1990 [4])	IC50 (CAPAN-1 [5])	IC50 (CAPAN-1 [6]; read-out: IC50)	IC50 (CAPAN-1 [7])	IC50 (CFPAC-1 [8])	IC50 (CFPAC-1 [9])	IC50 (CFPAC-1 [10])	IC50 (CFPAC-1 [21])	also measured
Cc1sc2c(c1C)C(c1ccc(Cl)cc1)=N[C@@H](CC(=O)OC(C)(C)C)c1nnc(C)n1-2	0.54 µM	2.03 µM	0.33 µM	31.6 µM	1.11 µM	0.63 µM	24.1 µM	0.58 µM	0.45 µM	13.9 µM	1.86 µM	0.35 µM		Activity (SW1990 [3]): Active; Activity [11]: Non-Toxic; Activity [12]: Non-Toxic; Activity (SW1990 [13]): Active; Activity (SW1990 [14]): Active; Activity (SW1990 [15]): Active; Activity (SW1990 [16]): Active; Activity (SW1990 [17]): Active; Activity (SW1990 [18]): Active
Cc1noc(C)c1-c1ccc2c(c1)C(c1ccccc1)N(Cc1nc3c(C(N)=O)cccc3[nH]1)C(=O)N2C (centres undefined)	0.09 µM	1.44 µM	0.43 µM	11.7 µM	0.98 µM	0.56 µM	7.21 µM	0.41 µM	0.17 µM	2.43 µM	1.31 µM	0.21 µM	0.98 µM	inhibition (SW1990 [19]): Active; IC50 [20]: 0.202 µM; Activity (SW1990 [22]): Active; inhibition (Mus musculus [23]): Active; inhibition (Mus musculus [24]): Active; inhibition (Mus musculus [25]): Active; inhibition (Mus musculus [26]): Active; inhibition (Mus musculus [27]): Active; inhibition (Mus musculus [28]): Active; inhibition (Mus musculus [29]): Active; Activity (SW1990 [30]): Active; Activity (SW1990 [31]): Active
O=C(c1cc(Cc2n[nH]c(=O)c3ccccc23)ccc1F)N1CCN(C(=O)C2CC2)CC1 [OLAPARIB]	1.83 µM	7.32 µM	32.3 µM	19.4 µM	4.93 µM	3.63 µM	25.2 µM		2.61 µM	28.7 µM		7.44 µM	9.87 µM	IC50 (CAPAN-1 [6]): 5.34 µM; Activity (SW1990 [32]): 1.66%; Activity (Mus musculus [33]): Active; Activity (SW1990 [34]): Active; Activity (SW1990 [35]): Active; Activity (SW1990 [36]): Active; Activity (SW1990 [37]): Active

Source: ChEMBL document CHEMBL5131471, “Design, synthesis and mechanism studies of novel dual PARP1/BRD4 inhibitors against pancreatic cancer” (Eur J Med Chem, 2022)
